Activity calls are given as the source filed them. The rule behind the calls is not given here.
Legend:
[1] = molecular target: Neuronal acetylcholine receptor subunit alpha-7 (Homo sapiens, UniProt P36544); assay: Displacement of [3H]Epibatidine from human alpha7 nACHR expressed in CHO cell membranes after 2 hrs by liquid scintillation counting analysis
[2] = molecular target: T1, Neuronal acetylcholine receptor; alpha4/beta2 (Homo sapiens, UniProt P17787+P43681); assay: Agonist activity at alpha4beta2 nACHR in human SHEP1 cell membranes assessed as stimulation of calcium flux by FLIPR assay relative to control; format: cell-based
[3] = molecular target: T2, Neuronal acetylcholine receptor; alpha3/beta4 (Homo sapiens, UniProt P30926+P32297); assay: Agonist activity at human alpha3beta4 nACHR expressed in CHO cell membranes assessed as stimulation of calcium flux by FLIPR assay; format: cell-based
[4] = molecular target: T2, Neuronal acetylcholine receptor; alpha3/beta4; assay: Agonist activity at human alpha3beta4 nACHR expressed in CHO cell membranes assessed as stimulation of calcium flux by FLIPR assay relative to control; format: cell-based
[5] = molecular target: T1, Neuronal acetylcholine receptor; alpha4/beta2; assay: Agonist activity at alpha4beta2 nACHR in human SHEP1 cell membranes assessed as stimulation of calcium flux by FLIPR assay; format: cell-based
[6] = molecular target: T2, Neuronal acetylcholine receptor; alpha3/beta4; assay: Displacement of [3H]Epibatidine from human alpha3beta4 nACHR expressed in CHO cell membranes after 2 hrs by liquid scintillation counting analysis
[7] = molecular target: T1, Neuronal acetylcholine receptor; alpha4/beta2; assay: Displacement of [3H]Nicotine from alpha4beta2 nACHR in human SHEP1 cell membranes after 2 hrs by liquid scintillation counting analysis
Rattus norvegicus [8] = assay: Cognitive enhancing effect in rat at 0.1 to 3 mg/kg, po by novel object recognition test; format: functional, organism-based
Rattus norvegicus [9] = assay: Cognitive enhancing effect in rat at 0.003 mg/kg, po by novel object recognition test; format: functional, organism-based; parameters: dose 0.003 mg/kg

T1 sequence (P17787 whole entry): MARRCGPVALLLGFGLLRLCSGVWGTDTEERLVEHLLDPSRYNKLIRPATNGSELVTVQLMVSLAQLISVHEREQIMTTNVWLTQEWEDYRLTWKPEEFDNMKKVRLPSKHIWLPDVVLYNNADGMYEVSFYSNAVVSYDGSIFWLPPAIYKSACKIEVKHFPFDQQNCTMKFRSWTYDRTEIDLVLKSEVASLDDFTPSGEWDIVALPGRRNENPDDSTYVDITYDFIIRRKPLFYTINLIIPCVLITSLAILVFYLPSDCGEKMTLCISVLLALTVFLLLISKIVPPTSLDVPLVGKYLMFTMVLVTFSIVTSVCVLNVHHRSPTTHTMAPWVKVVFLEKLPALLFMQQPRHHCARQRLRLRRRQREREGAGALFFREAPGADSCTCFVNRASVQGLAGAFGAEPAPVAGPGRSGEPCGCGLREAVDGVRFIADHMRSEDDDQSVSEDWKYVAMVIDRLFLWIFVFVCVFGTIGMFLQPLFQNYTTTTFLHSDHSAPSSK
T1 sequence (P43681 whole entry): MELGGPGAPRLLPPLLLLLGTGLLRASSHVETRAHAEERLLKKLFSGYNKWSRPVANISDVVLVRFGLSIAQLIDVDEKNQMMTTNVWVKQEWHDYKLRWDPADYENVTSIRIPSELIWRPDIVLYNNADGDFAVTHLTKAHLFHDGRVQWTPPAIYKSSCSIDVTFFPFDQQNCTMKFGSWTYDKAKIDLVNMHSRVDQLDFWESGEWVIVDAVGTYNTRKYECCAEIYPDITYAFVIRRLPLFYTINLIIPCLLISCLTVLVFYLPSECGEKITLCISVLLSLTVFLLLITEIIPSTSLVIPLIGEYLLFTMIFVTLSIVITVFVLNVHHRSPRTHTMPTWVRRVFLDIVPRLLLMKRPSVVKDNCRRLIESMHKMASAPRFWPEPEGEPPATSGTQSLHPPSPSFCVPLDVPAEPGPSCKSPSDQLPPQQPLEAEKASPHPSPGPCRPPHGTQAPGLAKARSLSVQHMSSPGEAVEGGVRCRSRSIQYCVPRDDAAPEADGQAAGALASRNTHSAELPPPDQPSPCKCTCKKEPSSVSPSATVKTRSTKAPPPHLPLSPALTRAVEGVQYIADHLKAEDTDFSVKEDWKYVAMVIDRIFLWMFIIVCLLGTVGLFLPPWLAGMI
Neuronal acetylcholine receptor subunit alpha-7, sequence (P36544 whole entry): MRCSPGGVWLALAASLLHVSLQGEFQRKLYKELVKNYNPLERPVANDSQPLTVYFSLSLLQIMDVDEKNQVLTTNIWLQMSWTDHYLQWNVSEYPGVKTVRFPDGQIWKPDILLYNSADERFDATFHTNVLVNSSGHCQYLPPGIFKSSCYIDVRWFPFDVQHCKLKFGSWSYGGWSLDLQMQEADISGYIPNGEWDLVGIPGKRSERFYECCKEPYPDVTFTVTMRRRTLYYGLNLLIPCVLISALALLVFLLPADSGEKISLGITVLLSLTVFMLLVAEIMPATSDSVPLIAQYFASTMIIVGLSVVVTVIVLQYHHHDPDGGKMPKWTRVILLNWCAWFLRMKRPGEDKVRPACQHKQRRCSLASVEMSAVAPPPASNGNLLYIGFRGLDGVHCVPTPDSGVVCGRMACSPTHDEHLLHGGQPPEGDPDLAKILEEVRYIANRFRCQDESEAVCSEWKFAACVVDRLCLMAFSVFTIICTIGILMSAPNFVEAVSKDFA
T2 sequence (P30926 whole entry): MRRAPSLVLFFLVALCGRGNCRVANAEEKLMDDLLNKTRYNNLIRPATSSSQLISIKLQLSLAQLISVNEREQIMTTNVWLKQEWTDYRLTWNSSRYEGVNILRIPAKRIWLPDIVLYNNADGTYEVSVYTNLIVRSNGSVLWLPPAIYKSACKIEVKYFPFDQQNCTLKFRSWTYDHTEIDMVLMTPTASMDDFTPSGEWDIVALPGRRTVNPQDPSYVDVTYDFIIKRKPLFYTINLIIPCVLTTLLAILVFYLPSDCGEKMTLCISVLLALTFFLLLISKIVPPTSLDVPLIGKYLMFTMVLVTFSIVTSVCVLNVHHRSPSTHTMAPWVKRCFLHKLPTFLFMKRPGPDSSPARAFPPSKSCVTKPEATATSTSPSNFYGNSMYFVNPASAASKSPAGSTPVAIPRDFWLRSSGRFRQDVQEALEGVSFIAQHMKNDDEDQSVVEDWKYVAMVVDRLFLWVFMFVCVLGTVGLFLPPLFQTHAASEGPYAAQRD
T2 sequence (P32297 whole entry): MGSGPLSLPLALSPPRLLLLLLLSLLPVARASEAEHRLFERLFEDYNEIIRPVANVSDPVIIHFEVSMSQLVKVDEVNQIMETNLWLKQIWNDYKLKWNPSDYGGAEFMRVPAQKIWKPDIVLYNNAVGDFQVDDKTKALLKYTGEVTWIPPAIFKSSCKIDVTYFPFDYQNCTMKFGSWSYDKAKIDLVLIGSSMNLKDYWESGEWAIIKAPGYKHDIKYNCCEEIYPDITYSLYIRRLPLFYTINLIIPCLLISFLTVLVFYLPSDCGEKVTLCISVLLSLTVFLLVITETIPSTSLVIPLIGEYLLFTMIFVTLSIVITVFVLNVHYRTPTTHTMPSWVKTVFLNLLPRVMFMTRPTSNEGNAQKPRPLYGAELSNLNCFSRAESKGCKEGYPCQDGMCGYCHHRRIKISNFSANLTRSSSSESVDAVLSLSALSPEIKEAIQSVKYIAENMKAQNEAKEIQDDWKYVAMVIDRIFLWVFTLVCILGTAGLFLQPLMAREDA

C[C@@H]1C[C@H]1C(=O)N1CC2CNCC(C2)C1 (mixture of isomers)
Ki [1]: 0.03 µM
Emax [2]: 23%
EC50 [3]: 1.6 µM
Emax [4]: 120%
EC50 [5]: 12 µM
Ki [6]: 0.1 µM
Ki [7]: 0.001 µM

CCCNC(=O)[C@H]1C[C@@H]2CNC[C@@H](C2)C1
Ki [1]: 10 µM
Emax [2]: 54%
EC50 [3]: 15 µM
Emax [4]: 24%
EC50 [5]: 2.4 µM
Ki [6]: 4 µM
Ki [7]: 0.006 µM

CC(C)NC(=O)[C@H]1C[C@@H]2CNC[C@@H](C2)C1
Ki [1]: 11 µM
Emax [2]: 64%
EC50 [3]: 27 µM
Emax [4]: 25%
EC50 [5]: 1.9 µM
Ki [6]: 6 µM
Ki [7]: 0.023 µM

C[C@@H]1C[C@H]1C(=O)N1CC2CNCC2C1 (mixture of isomers)
Ki [1]: 1.9 µM
Emax [2]: 100%
EC50 [3]: 14 µM
Emax [4]: 110%
EC50 [5]: 1.7 µM
Ki [6]: 0.36 µM
Ki [7]: 0.004 µM

O=C([C@@H]1C[C@H]1F)N1CC2CNCC(C2)C1 (mixture of isomers)
Ki [1]: 0.01 µM
Emax [2]: 77%
EC50 [3]: 0.39 µM
Emax [4]: 130%
EC50 [5]: 0.43 µM
Ki [6]: 0.036 µM
Ki [7]: 0.001 µM

CC(=O)N1CC2CNCC(C2)C1 (mixture of isomers)
Ki [1]: 3.3 µM
Emax [2]: 34%
EC50 [3]: 13 µM
Emax [4]: 110%
EC50 [5]: 9.9 µM
Ki [6]: 5.5 µM

COC(=O)C1CC2CNCC(C2)C1 (mixture of isomers)
Ki [7]: 2.4 µM

O=C(c1ccco1)[C@H]1C[C@@H]2CNC[C@@H](C2)C1
Ki [1]: 15 µM
Ki [7]: 0.11 µM

C[C@H]1C[C@@H]1C(=O)N1CC2CNCC2C1 (mixture of isomers)
Ki [1]: 100 µM
Emax [2]: 68%
EC50 [3]: 34 µM
Emax [4]: 26%
EC50 [5]: 5.6 µM
Ki [6]: 13 µM
Ki [7]: 0.043 µM

CNC(=O)[C@H]1C[C@H]2CNC[C@H]2C1 (mixture of isomers)
Ki [1]: 27 µM
Ki [7]: 0.18 µM

CNC(=O)[C@H]1C[C@@H]2CNC[C@@H](C2)C1
Emax [2]: 65%
EC50 [3]: 100 µM
Emax [4]: 5%
EC50 [5]: 2 µM
Ki [7]: 0.0019 µM

C[C@H]1C[C@H]1C(=O)N1CC2CNCC(C2)C1 (mixture of isomers)
Ki [1]: 0.1 µM
Emax [2]: 0.5%
EC50 [3]: 0.3 µM
Emax [4]: 140%
EC50 [5]: 100 µM
Ki [6]: 0.1 µM
Ki [7]: 0.0029 µM

O=C(C1CC1)[C@H]1C[C@H]2CNC[C@H]2C1 (mixture of isomers)
Ki [1]: 0.14 µM
Emax [2]: 120%
EC50 [3]: 0.93 µM
Emax [4]: 130%
EC50 [5]: 0.018 µM
Ki [6]: 0.07 µM
Ki [7]: 0.0005 µM

O=C([C@@H]1C[C@@H]1F)N1CC2CNCC2C1 (mixture of isomers)
Ki [1]: 6.9 µM
Emax [2]: 120%
EC50 [3]: 13 µM
Emax [4]: 88%
EC50 [5]: 0.93 µM
Ki [6]: 0.86 µM
Ki [7]: 0.017 µM

C[C@H]1C[C@@H]1C(=O)N1CC2CNCC(C2)C1 (mixture of isomers)
Ki [1]: 0.3 µM
Emax [2]: 21%
EC50 [3]: 8.3 µM
Emax [4]: 89%
EC50 [5]: 10 µM
Ki [6]: 0.6 µM
Ki [7]: 0.028 µM

O=C([C@@H]1C[C@H]1F)N1CC2CNCC2C1 (mixture of isomers)
Ki [1]: 0.99 µM
Emax [2]: 130%
EC50 [3]: 8.4 µM
Emax [4]: 150%
EC50 [5]: 0.19 µM
Ki [6]: 0.42 µM
Ki [7]: 0.009 µM

COC(=O)[C@H]1C[C@H]2CNC[C@H]2C1 (mixture of isomers)
Ki [1]: 13 µM
Emax [2]: 130%
EC50 [3]: 14 µM
Emax [4]: 100%
EC50 [5]: 1.2 µM
Ki [6]: 0.4 µM
Ki [7]: 0.008 µM

O=C([C@H]1C[C@@H]1F)N1CC2CNCC2C1 (mixture of isomers)
Ki [1]: 2.7 µM
Emax [2]: 140%
EC50 [3]: 14 µM
Emax [4]: 90%
EC50 [5]: 0.9 µM
Ki [6]: 0.81 µM
Ki [7]: 0.03 µM

COC(=O)N1CC2CNCC2C1 (mixture of isomers)
EC50 [3]: 16 µM
Emax [4]: 85%
Ki [6]: 14 µM
Ki [7]: 0.023 µM

C[C@@H]1C[C@@H]1C(=O)N1CC2CNCC(C2)C1 (mixture of isomers)
Ki [1]: 0.005 µM
Emax [2]: 5%
EC50 [3]: 0.08 µM
Emax [4]: 160%
EC50 [5]: 1.9 µM
Ki [6]: 0.01 µM
Ki [7]: 0.0002 µM

CCC(=O)N1CC2CNCC(C2)C1 (mixture of isomers)
Ki [1]: 1.6 µM
Emax [2]: 83%
EC50 [3]: 5.9 µM
Emax [4]: 130%
EC50 [5]: 1.9 µM
Ki [6]: 20 µM
Ki [7]: 0.008 µM

CN1CCC[C@H]1c1cccnc1
Emax [2]: 100%
Emax [4]: 100%

O=C(C1CC1)[C@H]1C[C@@H]2CNC[C@@H](C2)C1
Emax [2]: 22%
EC50 [3]: 1.3 µM
Emax [4]: 10%
EC50 [5]: 7.1 µM
Ki [6]: 4.1 µM
Ki [7]: 0.043 µM

O=C([C@@H]1C[C@@H]1F)N1CC2CNCC(C2)C1 (mixture of isomers)
Ki [1]: 0.3 µM
Emax [2]: 11%
EC50 [3]: 11 µM
Emax [4]: 90%
EC50 [5]: 0.4 µM
Ki [6]: 1.2 µM
Ki [7]: 0.0052 µM

O=C(c1ccco1)[C@H]1C[C@H]2CNC[C@H]2C1 (mixture of isomers)
Ki [1]: 3.4 µM
Emax [2]: 94%
EC50 [3]: 11 µM
Emax [4]: 40%
EC50 [5]: 1.6 µM
Ki [6]: 2.2 µM
Ki [7]: 0.013 µM

O=C([C@H]1C[C@H]1F)N1CC2CNCC(C2)C1 (mixture of isomers)
Ki [1]: 0.1 µM
Emax [2]: 7%
EC50 [3]: 2.1 µM
Emax [4]: 130%
EC50 [5]: 9.2 µM
Ki [6]: 0.15 µM
Ki [7]: 0.0014 µM

C[C@@H]1C[C@@H]1C(=O)N1CC2CNCC2C1 (mixture of isomers)
Ki [1]: 0.35 µM
Emax [2]: 140%
EC50 [3]: 1.4 µM
Emax [4]: 180%
EC50 [5]: 1.2 µM
Ki [6]: 0.28 µM
Ki [7]: 0.001 µM

COC(=O)N1CC2CNCC(C2)C1 (mixture of isomers)
Emax [2]: 65%
EC50 [5]: 5.2 µM
Ki [7]: 0.02 µM

O=C([C@H]1C[C@@H]1F)N1CC2CNCC(C2)C1 (mixture of isomers)
Ki [1]: 0.4 µM
Emax [2]: 84%
EC50 [3]: 8 µM
Emax [4]: 210%
EC50 [5]: 2.7 µM
Ki [6]: 0.32 µM
Ki [7]: 0.0073 µM

O=C([C@H]1C[C@H]1F)N1CC2CNCC2C1 (mixture of isomers)
Ki [1]: 1.4 µM
Emax [2]: 130%
EC50 [3]: 24 µM
Emax [4]: 140%
EC50 [5]: 1 µM
Ki [6]: 0.38 µM
Ki [7]: 0.005 µM

C[C@H]1C[C@H]1C(=O)N1CC2CNCC2C1 (mixture of isomers)
Ki [1]: 4.5 µM
Emax [2]: 100%
EC50 [3]: 10 µM
Emax [4]: 110%
EC50 [5]: 19 µM
Ki [6]: 2 µM
Ki [7]: 0.018 µM

CC(=O)N1CC2CNCC2C1 (mixture of isomers)
Emax [2]: 110%
EC50 [3]: 23 µM
Emax [4]: 36%
EC50 [5]: 2.6 µM
Ki [6]: 14 µM
Ki [7]: 0.038 µM

CCC(=O)N1CC2CNCC2C1 (mixture of isomers)
Ki [1]: 4 µM
Emax [2]: 120%
EC50 [3]: 18 µM
Emax [4]: 130%
EC50 [5]: 1.3 µM
Ki [6]: 2.1 µM
Activity (Rattus norvegicus [8]): Active
Ki [7]: 0.012 µM
Activity (Rattus norvegicus [9]): Active

Reference: ChEMBL document CHEMBL2407030, “Novel nicotinic acetylcholine receptor agonists containing carbonyl moiety as a hydrogen bond acceptor” (Bioorg Med Chem Lett, 2013)
